Test results from patent US4454137A, “Feed compositions containing copper salts of 2-hydroxypyridine-N-oxides” (SmithKline Beckman Corporation, priority 1982, dated 1984).
Several values for one entry are separate records, joined by “and”; a condition that tells them apart may be missing. Equal values may be shown once. Read-outs that look alike come from different tables or passages of the source.

What was measured:
[1] = W. Barker et al., J. Antibiotics 32 1096 (1979); cited from earlier work
post weanling pigs [2] = test: Post weanling pig feeding test, corn based pre-starter feed (Example 6); assay type: in vivo; details: 10 ppm; corn ration
Text: Each replication contained 8 treatment groups in turn comprising 2 pigs per pen.

inoculum (ileal) = test: In vitro swine procedure, ileal inoculum incubation (VFA, lysine, glucose, L-lactic acid); parameters: species or system swine (Yorkshire barrow)
inoculum (cecal) = test: In vitro swine procedure, cecal inoculum incubation (VFA, lysine, glucose, L-lactic acid); parameters: species or system swine (Yorkshire barrow)
post weanling pigs [3] = test: Pig feeding test, corn and rye diets (Example 7); assay type: in vivo; details: 10 ppm
Procedure: Each replication contained 8 treatment groups in turn comprising 2 pigs per pen. The experiment was run similar to that of Example 6 except another control having a rye diet was added.

[4] = ileal, 167 ppm, positive control of run 1(a), DMSO series (carrier not given)

COc1ccc(=O)n([O-])c1C.COc1ccc(=O)n([O-])c1C.[Cu+2] [copper salt of 2-hydroxy-5-methoxy-6-methylpyridine-N-oxide]
antimicrobial activity relative to iron salt and ligand parent [1]: less antimicrobial activity than does either the corresponding iron salt or the ligand parent

virginiamycin
Average daily gain (0-21 days) (post weanling pigs [2]): .667
Feed/gain (post weanling pigs [2]): 2.56
Feed/gain, percent in parentheses (control 100%) (post weanling pigs [2]): 97.4%
GLU (glucose) (inoculum (ileal); ileal, 167 ppm): 133 % of blank control values
LAC (L-lactic acid) (inoculum (ileal); ileal, 167 ppm): 29 % of blank control values
LYS (lysine) (inoculum (ileal); ileal, 167 ppm): 134 % of blank control values
GLU (glucose) (inoculum (ileal); [4]): 101 % of blank control values
LAC (L-lactic acid) (inoculum (ileal); [4]): 16 % of blank control values
LYS (lysine) (inoculum (ileal); [4]): 167 % of blank control values
VFA (total of volatile fatty acids) (inoculum (ileal); [4]): 14 % of blank control values
VFA (total of volatile fatty acids) (inoculum (cecal)): 94
GLU (glucose) (inoculum (cecal); cecal, 0.17 ppm): 30 % of blank control values
LYS (lysine) (inoculum (cecal); cecal, 0.17 ppm): 71 % of blank control values
GLU (glucose) (inoculum (cecal); cecal, 1.67 ppm): 72 % of blank control values
LYS (lysine) (inoculum (cecal); cecal, 1.67 ppm): 74 % of blank control values
VFA (total of volatile fatty acids) (inoculum (cecal); cecal, 1.67 ppm): 100 % of blank control values
GLU (glucose) (inoculum (cecal); cecal, 16.67 ppm): 524 % of blank control values
LAC (L-lactic acid) (inoculum (cecal); cecal, 16.67 ppm): 35 % of blank control values
LYS (lysine) (inoculum (cecal); cecal, 16.67 ppm): 107 % of blank control values
VFA (total of volatile fatty acids) (inoculum (cecal); cecal, 16.67 ppm): 83 % of blank control values
GLU (glucose) (inoculum (cecal); cecal, 167 ppm): 732 % of blank control values
LAC (L-lactic acid) (inoculum (cecal); cecal, 167 ppm): 49 % of blank control values
LYS (lysine) (inoculum (cecal); cecal, 167 ppm): 172 % of blank control values
VFA (total of volatile fatty acids) (inoculum (cecal); cecal, 167 ppm): 89 % of blank control values
Average Daily Gain, 0-23 days (post weanling pigs [3]; Vm + Cont. (corn diet)): 0.582 kg
Average Daily Gain, 0-23 days (post weanling pigs [3]; Vm + Rye (rye diet)): 0.529 kg

O=[N+]([O-])c1ccc([O-])[n+]([O-])c1.O=[N+]([O-])c1ccc([O-])[n+]([O-])c1.[Cu+2] [5-Nitro-2-hydroxypyridine-N--oxide, Cu^++]
LYS (lysine) (inoculum (ileal)): 109
GLU (glucose) (inoculum (ileal); ileal, 167 ppm): 110 % of blank control values and 104 % of blank control values
LAC (L-lactic acid) (inoculum (ileal); ileal, 167 ppm): 160 % of blank control values and 106 % of blank control values
LYS (lysine) (inoculum (ileal); ileal, 167 ppm): 159 % of blank control values
VFA (total of volatile fatty acids) (inoculum (ileal); ileal, 167 ppm): 47 % of blank control values and 48 % of blank control values

O=S(=O)([O-])[O-].[Cu+2] [Copper sulfate]
GLU (glucose) (inoculum (ileal); ileal, 3.3 ppm): 109 % of blank control values
LAC (L-lactic acid) (inoculum (ileal); ileal, 3.3 ppm): 113 % of blank control values
LYS (lysine) (inoculum (ileal); ileal, 3.3 ppm): 107 % of blank control values
VFA (total of volatile fatty acids) (inoculum (ileal); ileal, 3.3 ppm): 99 % of blank control values
GLU (glucose) (inoculum (ileal); ileal, 33.3 ppm): 98 % of blank control values
LAC (L-lactic acid) (inoculum (ileal); ileal, 33.3 ppm): 104 % of blank control values
VFA (total of volatile fatty acids) (inoculum (ileal); ileal, 33.3 ppm): 99 % of blank control values
GLU (glucose) (inoculum (ileal); ileal, 333.33 ppm): 113 % of blank control values
LAC (L-lactic acid) (inoculum (ileal); ileal, 333.33 ppm): 137 % of blank control values
LYS (lysine) (inoculum (ileal); ileal, 333.33 ppm): 107 % of blank control values
VFA (total of volatile fatty acids) (inoculum (ileal); ileal, 333.33 ppm): 47 % of blank control values
